Values of other authors, collected in patent publication US6777561B1, “Compounds” (AstraZeneca Canada Inc., priority 1998, dated 2004).

Legend:
[1] = background statement on non-peptidic δ antagonists
δ receptor = conditions: background statement on non-peptidic δ antagonists

Oc1ccc2c3c1O[C@H]1c4[nH]c5ccccc5c4C[C@@]4(O)[C@@H](C2)N(CC2CC2)CC[C@]314 [naltrindole]
analgesic activity [1]: no analgesic activity
selectivity for the δ receptor vs. μ receptor binding (δ receptor): < 10 fold
